{"source": "paper PMC6934184", "about": "“Selective DNA-PKcs inhibition extends the therapeutic index of localized radiotherapy and chemotherapy” (The Journal of Clinical Investigation, 2019)", "target": "T1, MERTK (cMER) (Homo sapiens, UniProt Q12866)", "T1 construct": "purchased Thermo Fisher Scientific (Life Technologies) SelectScreen", "T1 sequence (Q12866 21-999)": "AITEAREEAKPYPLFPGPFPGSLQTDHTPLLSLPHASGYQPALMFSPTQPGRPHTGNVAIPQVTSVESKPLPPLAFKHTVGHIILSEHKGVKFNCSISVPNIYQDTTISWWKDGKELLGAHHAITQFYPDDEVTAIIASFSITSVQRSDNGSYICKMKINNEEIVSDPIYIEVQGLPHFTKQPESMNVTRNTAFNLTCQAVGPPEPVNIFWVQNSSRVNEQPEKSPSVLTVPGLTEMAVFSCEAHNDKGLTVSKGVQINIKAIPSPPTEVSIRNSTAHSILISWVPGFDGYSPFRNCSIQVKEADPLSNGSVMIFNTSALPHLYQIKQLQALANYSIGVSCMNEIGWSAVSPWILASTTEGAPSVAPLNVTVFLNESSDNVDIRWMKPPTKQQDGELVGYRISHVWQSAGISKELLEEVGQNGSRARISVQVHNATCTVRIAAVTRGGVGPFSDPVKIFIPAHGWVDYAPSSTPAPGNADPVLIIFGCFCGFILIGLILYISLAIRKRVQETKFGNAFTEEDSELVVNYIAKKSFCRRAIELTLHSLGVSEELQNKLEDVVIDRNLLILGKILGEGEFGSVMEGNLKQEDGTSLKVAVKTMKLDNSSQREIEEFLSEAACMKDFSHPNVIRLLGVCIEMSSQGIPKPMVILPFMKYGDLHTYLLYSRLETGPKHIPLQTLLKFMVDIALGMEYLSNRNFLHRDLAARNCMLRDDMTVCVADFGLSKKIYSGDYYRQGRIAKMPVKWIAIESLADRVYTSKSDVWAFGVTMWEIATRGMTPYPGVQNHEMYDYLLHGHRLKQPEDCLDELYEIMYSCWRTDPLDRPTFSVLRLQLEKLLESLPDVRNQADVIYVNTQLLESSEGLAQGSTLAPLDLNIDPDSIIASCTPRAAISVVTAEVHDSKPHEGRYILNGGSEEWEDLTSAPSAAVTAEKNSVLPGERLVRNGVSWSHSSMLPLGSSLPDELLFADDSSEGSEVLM", "test": "SelectScreen Z'LYTE", "format": "biochemical", "in_short": "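NU5455 was profiled across the SelectScreen Broad panel of kinase activity and binding assays. Z'LYTE reactions such as CSF1R ran at apparent Km ATP, while the Adapta CAMK1 assay used ATP listed as 10. Values are given as percent.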"}
{"molecule": "CN(C(=O)CN1CCOCC1)c1ccc2sc3c(-c4cccc5c(=O)cc(N6CC7CCC(C6)O7)oc45)cccc3c2c1", "note": "[NU5455]", "values": [{"measurement": "inhibition at 1 µM", "result": 8.3, "unit": "%"}]}
